In ChEMBL document CHEMBL1131961, “Protein kinase C modulators bearing dicarba-CLOSO-dodecaborane as a hydrophobic pharmacophore” (Bioorg Med Chem Lett, 1999):

What was measured:
HL-60 = experiment: Inhibition of HL-60 monocyte cell proliferation; assay type: functional; details: Homo sapiens, read-out: ED50 (the source's name)
[1] = target: Protein kinase C delta type (Homo sapiens, UniProt Q05655); experiment: Displacement of [3H]-PDBu from human recombinant Protein kinase C delta
Protein kinase C delta type, sequence (Q05655 whole entry): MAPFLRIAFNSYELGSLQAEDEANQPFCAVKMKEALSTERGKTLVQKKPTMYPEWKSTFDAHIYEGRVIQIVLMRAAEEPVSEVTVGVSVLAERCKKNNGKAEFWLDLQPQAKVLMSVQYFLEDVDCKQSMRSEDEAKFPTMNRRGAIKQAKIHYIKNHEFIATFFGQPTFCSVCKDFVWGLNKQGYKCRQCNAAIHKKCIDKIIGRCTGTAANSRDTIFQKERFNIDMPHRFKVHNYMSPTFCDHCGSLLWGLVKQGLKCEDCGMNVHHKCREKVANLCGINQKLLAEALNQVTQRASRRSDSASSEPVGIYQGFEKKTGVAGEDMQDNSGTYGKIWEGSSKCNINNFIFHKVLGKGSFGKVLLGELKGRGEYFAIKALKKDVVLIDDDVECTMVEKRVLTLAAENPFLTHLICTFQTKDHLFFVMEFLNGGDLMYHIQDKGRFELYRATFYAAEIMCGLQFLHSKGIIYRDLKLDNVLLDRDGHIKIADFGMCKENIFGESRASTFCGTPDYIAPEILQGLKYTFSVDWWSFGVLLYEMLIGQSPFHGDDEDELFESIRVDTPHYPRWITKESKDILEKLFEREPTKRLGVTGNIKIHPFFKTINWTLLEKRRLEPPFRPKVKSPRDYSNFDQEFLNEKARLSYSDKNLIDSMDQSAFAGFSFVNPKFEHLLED

In the case of `CCCCCCCCCCc1ccc2c(c1)N(C)[C@@H](C(C)C)C(=O)N[C@H](CO)C2`, the EC50 (HL-60) is reported as 5 nM and the Ki [1] is reported as 1.8 nM.
